Experimental data as given in US20120178124A1, “STEROL SIDE CHAIN-CLEAVING ENZYME PROTEIN AND USE THEREOF” (MITSUBISHI CHEMICAL CORPORATION, priority 2009, published 2012).

How the values were obtained:
CYP11A = target: T1, CYP11A (Homo sapiens, UniProt P05108); assay: Conversion reaction of substrates by CYP11A-expressing Escherichia coli; type: cell-based; conditions: for Conversion rate: same reaction as Example 6 (28° C., 5 hours)
T1 construct: A 1.45-kb CYP11A1 gene fragment amplified as a result of the above-described reaction; expressed in transfected cells; host or cells: Escherichia coli BL21(DE3), plasmid pCYP11A-ARX (strain BL21CYP11)
T1 sequence (P05108 40-521): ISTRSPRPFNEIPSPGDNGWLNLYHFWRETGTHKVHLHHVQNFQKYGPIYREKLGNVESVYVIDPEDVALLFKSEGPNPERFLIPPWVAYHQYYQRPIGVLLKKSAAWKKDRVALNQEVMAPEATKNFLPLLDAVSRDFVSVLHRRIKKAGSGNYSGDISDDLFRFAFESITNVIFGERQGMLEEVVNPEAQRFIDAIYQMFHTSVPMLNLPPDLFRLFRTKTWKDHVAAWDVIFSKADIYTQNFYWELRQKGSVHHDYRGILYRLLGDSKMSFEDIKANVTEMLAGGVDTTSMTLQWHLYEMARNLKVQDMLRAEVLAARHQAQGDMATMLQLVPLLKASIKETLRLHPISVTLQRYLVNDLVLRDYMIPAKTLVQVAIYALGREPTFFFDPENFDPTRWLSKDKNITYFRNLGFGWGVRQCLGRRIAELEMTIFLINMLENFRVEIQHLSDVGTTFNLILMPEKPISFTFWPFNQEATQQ
Description: (§1) The Escherichia coli expression strain BP215 was inoculated into 2 ml of an M9 mix medium (Na2HPO4: 0.68%, KH2PO4: 0.3%, NaCl: 0.05%, NH4C;: 0.01%, Casamino acid: 1%, D-Glucose: 0.4%, CaCl2: 0.1 mM, MgCl2: 1 mM, Thiamine: 0.002%, FeSO4: 0.1 mM, Carbenicillin: 0.005%), and it was then subjected to shaking culture at 30° C. for 17 hours, so as to obtain pre-culture solution. 0.25 ml of this pre-culture solution was inoculated into 25 ml of the main culture medium (Na2HPO4: 0.68%, KH2PO4: 0.3%, NaCl: 0.05%, NH4Cl: 0.01%, Casamino acid: 1%, CaCl2: 0.1 mM, MgCl2: 1 mM, Thiamine: 0.002%, FeSO4: 0.1 mM, Carbenicillin: 0.005%, Overnight Express™ solution: 7%, 5-Aminolevlic acid: 0.008%) using Overnight Express™ Autoinduction System (Novagen Cat. No. 71300-4), and it was then subjected to shaking culture at 25° C. for 24 hours. 5 ml of the obtained main culture solution was centrifuged (3500 rpm, 10 minutes) to obtain cell mass, and 1 ml of CV2 buffer (50 mM (pH) potassium phosphate buffer containing glycerol: 2%, carbenicillin: 0.005%, and isopropyl β-D-1-thiogalactopyranoside: 0.1 mM) was added to the obtained cell mass. Thereafter, 0.01 ml of the methanol solution of 1% 4-cholesten-3-one and 0.02 ml of an aqueous solution of 25% methyl-β-cyclodextrin were added to the mixed solution, and the obtained mixture was then shaken at 28° C. for 5 hours for the reaction. After completion of the reaction, 4 ml of methanol was added to the reaction solution, and they were then fully mixed. The obtained mixture was centrifuged, and the upper layer was then analyzed by HPLC.
A commercially available human testis cDNA (Origene Technologies, Inc.) was used as a template, and a CYP11A1 gene was amplified by PCR using a primer CYP11A-1F (SEQ ID NO: 19) and a primer CYP11A-2R (SEQ ID NO: 20), and also using KOD plus polymerase (TOYOBO Co., Ltd.). The temperature conditions applied during the PCR were 94° C./3 min, 30 cycles of (94° C./30 sec, 55° C./60 sec, and 72° C./90sec), and 72° C./5 min.
A 1.45-kb CYP11A1 gene fragment amplified as a result of the above-described reaction was purified using QIAquick PCR purification Kit (manufactured by QIAGEN), and it was then digested with Nde I and Spe I. Thereafter, the digest was ligated to Escherichia coli expression vector pT7NS-camAB, using T4 DNA ligase, and Escherichia coli DH5α was then transformed with the obtained expression vector, so as to construct a plasmid pCYP11A-camAB. Subsequently, using T4 DNA ligase, the previously prepared bovine-derived adrenodoxin reductase protein-adrenodoxin gene (adr-adx) fragment was inserted into and ligated to each of the Spe I and Bam HI sites of the above-described plasmid, and Escherichia coli DH5a was then transformed with the obtained plasmid, so as to construct plasmid pCYP11A-ARX. Thereafter, Escherichia coli BL21(DE3) was transformed with the thus constructed plasmid, and the obtained cell strain was named as BL21CYP11. The used adx-adr fragment was amplified by PCR with a plasmid pKARX (Sawada et. al. Eur. J. Biochem. 265, 950-956,1999) as a template, using primer bAdxR-1F (SEQ ID NO: 21) and primer bAdx-2R (SEQ ID NO: 22), and also using KOD plus polymerase (manufactured by TOYOBO Co., Ltd.). The temperature condition applied during the PCR were 94° C./3 min, 25 cycles of (94° C./30 sec, 60° C./30 sec, and 72° C./120sec), and 72° C./5 min.
Each substrate was subjected to the same reaction as that of Example 6, separately, and the reaction solution was then subjected to liquid separation using 1 ml of ethyl acetate. The reaction product and the substrate were extracted, and were then analyzed by HPLC.

CYPSS204A = assay: Conversion reaction of substrates by Escherichia coli expression strain BP215; type: cell-based, Sphingomonas subterranea NBRC 16086; conditions: strain BP215, 28° C., 5 hours; for Conversion rate: to progesterone, pregnenolone or 7-dehydropregnenolone
Description: The temperature conditions applied during the PCR were 95° C./5 min, 30 cycles of (98° C./30 sec, 60° C./30 sec, and 68° C./2 min), and 68° C./10 min.
Analysis conditions: Using Chromolith speed rod RP18e (50×4.6 mm) column, 50%→100% CH3CN gradient (0 to 3 min) and 100% CH3CN (3 to 8 min) were used as a mobile phase, and detection was carried out at a flow rate of 2 ml/min using CAD™ (Charged Aerosol Detection) and MS.

CYP204A1 = conditions: for Conversion rate: strain BP172, same reaction as Example 6 (28° C., 5 hours)
Description: Novosphingobium aromaticivorans (ATCC 700278) was inoculated into an L medium, and it was then cultured at 30° C. for 2 days. Thereafter, genomic DNA was extracted from the cell mass obtained in the same manner as that of Example 1. A fragment comprising a CYPSS204A1 gene and a ferredoxin gene located downstream thereof was amplified from the above-described genomic DNA by using a primer CYP-5F (SEQ ID NO: 9) and a primer CYP-6R (SEQ ID NO: 10) and also using La Taq polymerase (manufactured by Takara Bio INC.). The temperature conditions applied during this operation were 94° C./3 min, 30 cycles of (98° C./20 sec, 63° C./30 sec, and 68° C./2 min), and 72° C./5 min.
Escherichia coli BL21(DE3) was transformed with this plasmid, and the obtained cell strain was named as BP172.
as §1
As substrates, 4-cholesten-3-one, cholesterol, 7-dehydrocholesterol, ergosterol, 13-sitosterol, stigmasterol, campesterol, desmosterol, (20S)-20-hydroxycholest-4-en-3-one, (22R)-22-hydroxycholest-4-en-3-one, (20R,22R)-20,22-dihydroxycholest-4-en-3-one, and (20R,22S)-20,22-dihydroxycholest-4-en-3-one were used. Each substrate was subjected to the same reaction as that of Example 6, separately, and the generated product was then analyzed by HPLC.

[1] = substrate: CC(C)CCC[C@@H](C)[C@H]1CC[C@H]2[C@@H]3CCC4=CC(=O)CC[C@]4(C)[C@H]3CC[C@]12C; assay: purified protein, by the assay type; conditions: other: 4-cholesten-3-one 0.1 to 500 μM, pH 7.5, 15° C., 60 minutes, Lineweaver-Burk plot
[2] = strain BP172, same reaction as Example 6

| Molecule | accumulated amount of pregnenolone (CYP11A; same reaction as Example 6) | added substrate remained (CYP11A; same reaction as Example 6) | Conversion rate (CYP11A) | accumulated amount of pregnenolone (CYPSS204A) | added substrate remained (CYPSS204A) | Conversion rate (CYPSS204A) | accumulated amount of pregnenolone (CYP204A1; [2]) | added substrate remained (CYP204A1; [2]) | Conversion rate (CYP204A1) | Km [1] |
| --- | --- | --- | --- | --- | --- | --- | --- | --- | --- | --- |
| CC(C)CCC[C@](C)(O)[C@H]1CC[C@H]2[C@@H]3CC=C4C[C@@H](O)CC[C@]4(C)[C@H]3CC[C@@]21C [(20S)-20-hydroxy-cholesterol] | 16.3 mg/L | 98.8% | 16.3% | 89.2 mg/L | 0% | 89.2% | 68.2 mg/L | 25.2% | 68.2% | – |
| CC(C)=CCC[C@@H](C)[C@H]1CC[C@@]2(C)C3=C(CC[C@]12C)[C@@]1(C)CC[C@H](O)C(C)(C)[C@@H]1CC3 [Lano, lanosterol] | – | – | 0% | – | – | 0% | – | – | 0% | – |
| CC(C)CC[C@@H](O)[C@@H](C)[C@H]1CC[C@H]2[C@@H]3CCC4=CC(=O)CC[C@]4(C)[C@H]3CC[C@]12C [(22R)-22-hydroxycholest-4-en-3-one] | – | 99.7% | 0.4% | – | 2.7% | 42.3% | – | – | 80.9% | – |
| Novosphingobium aromaticivorans ATCC 700278 P450scc CYP204A1, wild type, SEQ ID NO: 23 (Novosphingobium aromaticivorans DSM 12444) (protein) MARAATAAGNGLPLLDGGVPLLGHLAQFFRDPVSVLKRGYRSKGRLFAMNFMGQRMNVMLGPEHNRFFFEETDKLLSIRESMPFFLKMFSPEFYSFAEMDEYLRQRSIIMPRFKAASMKQYVPVMVEESLNLVERLGEEGEFDLIPTLGPVVMDIAAHSFMGREFHEKLGHEFFELFRDFSGGMEFVLPLWLPTPKMVKSQRAKRKLHAILQSWIDKRRAAPLDPPDFFQTMIETKYPDGRPVPDEIIRHLILLLVWAGHETTAGQVSWALADLLQNPDYQKVLRGEISSLLGGSDGRDLGWEQAVAMEKMDLALRETERLHPVAYMLSRKARADIERDGYVIRKGEFVLLAPSVSHRMEETFRNPDAYDPERFNPANPDAQIESNSLIGFGGGVHRCAGVNFARMEMKVLVAILLQNFDMELMDEVRPIAGASTYWPAQPCRVRYRRRKLDGSEAGADMAALARAAGCPAHT | – | – | – | – | – | – | – | – | – | 1.0 µM |
